Results: publication PMC4365270 (Cancer Chemotherapy and Pharmacology, 2015)
Where two headings read alike, the source gives them in different places.

Key:
[1] = tested on: multiple mouse cancer models; conditions: cited from earlier work
[2] = tested on: advanced solid tumors and lymphomas; assay: Antitumor activity (RECIST 1.1 / lymphoma criteria); format: in vivo, human
Procedure: Tumor evaluations were scheduled before therapy and after every other cycle of therapy. Changes were determined by physical examination, tumor markers, or standard imaging techniques. […] Read-outs were complete response (CR), partial response (PR), stable disease (SD), and disease progression (DP).

[3] = dogs; cited from earlier work
[4] = parameters: method as in PMID 23813446; conditions: dogs; cited from earlier work
[5] = parameters: method as in PMID 23813446; conditions: non-human primates; cited from earlier work
[6] = parameters: method as in PMID 23813446; conditions: rats; cited from earlier work
[7] = tested on: caspase-3 generated cytokeratin-18 fragments (M30); assay: Plasma M30 ELISA; format: in vivo, human; conditions: day 5, p < 0.0033
Procedure: (§1) cIAP-1 levels were measured in tumor tissue and surrogate tissue as available. Peripheral blood mononuclear cells (PBMCs) were analyzed for DEBIO1143-induced cIAP-1 degradation. Plasma native cytokeratin-18 ([…]) or caspase-3 generated cytokeratin-18 fragments (M30), interleukin 8 (IL8), chemokine ligand 2 (CCL2, MCP1), and tumor necrosis factor α (TNFα) were measured by ELISA as markers of epithelial cell death and inflammation on days 1 (predose, 1, 3, 6, and 12 h postdose), 2, and 5. […] For the detection of cIAP-1 in paraffin-embedded human tissue, a validated immunohistochemical (IHC) assay was used. DEBIO1143-induced cIAP-1 degradation was measured in PBMCs using Western blot. Plasma biomarkers were measured through commercial ELISAs. All laboratory analyses were performed by MPI Research, Inc. (PK) and Mosaic Laboratory, LLC (PD).

[8] = tested on: chemokine ligand 2 (CCL2, MCP1); assay: Plasma CCL2 ELISA; format: in vivo, human
Procedure: as §1

[9] = tested on: various human cancer cell lines; parameters: method as in PMID 21264751, PMID 22669575; conditions: in vitro; cited from earlier work
[10] = tested on: tumor necrosis factor α (TNFα); assay: Plasma TNFα ELISA; parameters: species or system human; conditions: in vivo
Procedure: as §1

xenograft tumors = conditions: cited from earlier work

For `CN[C@@H](C)C(=O)N[C@H]1CN(C(=O)CC(C)C)CC[C@H]2CC[C@@H](C(=O)NC(c3ccccc3)c3ccccc3)N2C1=O` [DEBIO1143], the “Effect on irradiation or chemotherapeutic agents” value [1] is listed as “enhance the antitumoral effects”, the “Complete or partial response” value ([2]; 31 patients) is listed as “No patient had a complete or partial response” and the “Duration of stable disease, range” value ([2]; five patients) is listed as 85 to 197 days. The “Median duration of stable disease” value ([2]; five patients) was 93 days, the “Reduction in target lesion dimensions” value ([2]; one patient with metastatic melanoma, 400 mg/day) was 11% and the “No observable adverse event level (NOAEL)” value [3] was 1 mg/kg. The Oral bioavailability [4] was “good”, the Oral bioavailability [5] was “good” and the Oral bioavailability [6] was “good”. The “Plasma level of M30” value [7] was “increased significantly”, the “Patients with increased plasma CCL2” value ([8]; 900 mg) was “five out of six” and the “Plasma CCL2, mean increase” value ([8]; 900 mg, six patients) was 45%. For the same compound, the “Plasma CCL2 increase, range” value ([8]; 900 mg, six patients) was −6 to 54%, the “Plasma CCL2 increase, significance” value ([8]; 3 and 6 h postdose, p < 0.0001) was “significant” and the “Patients with increased plasma CCL2” value ([8]; all dose levels, 25 patients) was 14. The Cell growth [9] was “inhibit cell growth”, the “Patients with detectable TNFα showing some increase postdose” value [10] was “four out of five” and the Apoptosis (xenograft tumors) was “apoptosis in xenograft tumors”.
